Laboratory results published in patent US20230143612A1 (Arbutus Biopharma Corporation, priority 2020, published 2023).

Molecular target: PD-L1 His protein / PD-1 Fc protein (Homo sapiens, UniProt Q9NZQ7)
Experiment: HTRF Assay (PD-1/PD-L1 interaction)
Assay type: binding
Settings: PD-L1 His 6 nM, PD-1 Fc 6 nM
How it was run: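 HTRF: PD-L1 His (6 nM final), compound (3-fold dilutions, 20 μM to 0.001 μM final) and PD-1 Fc (6 nM final) preincubated 15 min at room temperature. Anti-human IgG-XL665 and anti-6HIS Tb cryptate (mixed at 6.7 nM and 0.35 nM) then added for 1 h at room temperature before reading.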

PD-L1 His protein / PD-1 Fc protein, sequence (Q9NZQ7 19-238 limits assumed): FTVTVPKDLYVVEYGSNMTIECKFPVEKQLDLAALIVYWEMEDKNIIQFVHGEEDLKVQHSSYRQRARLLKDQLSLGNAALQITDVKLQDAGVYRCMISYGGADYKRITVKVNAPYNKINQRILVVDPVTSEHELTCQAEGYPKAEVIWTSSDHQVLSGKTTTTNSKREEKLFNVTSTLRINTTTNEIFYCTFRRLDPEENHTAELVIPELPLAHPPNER

| Compound | IC50 [nM] |
| --- | --- |
| Cc1c(-c2ccn3c(=O)c(CNC[C@@H]4CCC(=O)N4)cnc3c2)cccc1-c1cccc(-c2ccc(CNC[C@@H]3CCC(=O)N3)c(C(F)(F)F)n2)c1Cl [Example 78, 8-(2′-Chloro-2-methyl-3′-(5-(((((S)-5-oxopyrrolidin-2-yl)methyl)amino)methyl)-6-(trifluoromethyl)pyridin-2-yl)-[1,1′-biphenyl]-3-yl)-3-(((((S)-5-oxopyrrolidin-2-yl)methyl)amino)methyl)-4H-pyrido[1,2-a]pyrimidin-4-one] | 16 |
| Cc1nc(-c2cccc(-c3cccc(-c4ccn5c(=O)c(CNC[C@@H]6CCC(=O)N6)cnc5c4)c3C)c2Cl)ccc1CNC[C@@H]1CCC(=O)N1 [Example 79, 8-(2′-Chloro-2-methyl-3′-(6-methyl-5-(((((S)-5-oxopyrrolidin-2-yl)methyl)amino)methyl)pyridin-2-yl)-[1,1′-biphenyl]-3-yl)-3-(((((S)-5-oxopyrrolidin-2-yl)methyl)amino)methyl)-4H-pyrido[1,2-a]pyrimidin-4-one] | 2.8 |
| COc1nc(-c2cccc(-c3cccc(-c4ccn5c(=O)c(CNCCO)cnc5c4)c3Cl)c2Cl)ccc1CNC[C@@H]1CCC(=O)N1 [Example 80, (S)-8-(2,2′-Dichloro-3′-(6-methoxy-5-((((5-oxopyrrolidin-2-yl)methyl)amino)methyl)pyridin-2-yl)-[1,1′-biphenyl]-3-yl)-3-(((2-hydroxyethyl)amino)methyl)-4H-pyrido[1,2-a]pyrimidin-4-one] | 4.2 |
| COc1nc(-c2cccc(-c3cccc(-c4ccn5c(=O)c(CNCCNC(C)=O)cnc5c4)c3Cl)c2Cl)ccc1CNC[C@@H]1CCC(=O)N1 [Example 81, (S)—N-(2-(((8-(2,2′-Dichloro-3′-(6-methoxy-5-((((5-oxopyrrolidin-2-yl)methyl)amino)methyl)pyridin-2-yl)-[1,1′-biphenyl]-3-yl)-4-oxo-4H-pyrido[1,2-a]pyrimidin-3-yl)methyl)amino)ethyl)acetamide] | 8.3 |
| COc1nc(-c2cccc(-c3cccc(-c4ccn5nc(CNC[C@@H]6CCC(=O)N6)cc5n4)c3Cl)c2Cl)ccc1CNC[C@@H]1CCC(=O)N1 [Example 82, (S)-5-((((6-(2,2′-Dichloro-3′-(2-(((((S)-5-oxopyrrolidin-2-yl)methyl)amino)methyl)pyrazolo[1,5-a]pyrimidin-5-yl)-[1,1′-biphenyl]-3-yl)-2-methoxypyridin-3-yl)methyl)amino)methyl)pyrrolidin-2-one] | 9.9 |
| COc1nc(-c2cccc(-c3cccc(-c4ccn5c(=O)c(CN6CC[C@H](C(=O)O)C6)cnc5c4)c3Cl)c2Cl)ccc1CN1CC(CO)C1 [Example 83, (S)-1-((8-(2,2′-Dichloro-3′-(5-((3-(hydroxymethyl)azetidin-1-yl)methyl)-6-methoxypyridin-2-yl)-[1,1′-biphenyl]-3-yl)-4-oxo-4H-pyrido[1,2-a]pyrimidin-3-yl)methyl)pyrrolidine-3-carboxylic acid] | 0.4 |
| COc1nc(-c2cccc(-c3cccc(-c4ccn5c(=O)c(CN6CC(C(=O)O)C6)cnc5c4)c3Cl)c2Cl)ccc1CN1CC(CO)C1 [Example 84, 1-((8-(2,2′-Dichloro-3′-(5-((3-(hydroxymethyl)azetidin-1-yl)methyl)-6-methoxypyridin-2-yl)-[1,1′-biphenyl]-3-yl)-4-oxo-4H-pyrido[1,2-a]pyrimidin-3-yl)methyl)azetidine-3-carboxylic acid] | 0.3 |
| COc1nc(-c2cccc(-c3cccc(-c4ccn5c(=O)c(CNC[C@@H]6CCC(=O)N6)ccc5c4)c3Cl)c2Cl)ccc1CNC[C@@H]1CCC(=O)N1 [Example 85, 8-(2,2′-Dichloro-3′-(6-methoxy-5-(((((S)-5-oxopyrrolidin-2-yl)methyl)amino)methyl)pyridin-2-yl)-[1,1′-biphenyl]-3-yl)-3-(((((S)-5-oxopyrrolidin-2-yl)methyl)amino)methyl)-4H-quinolizin-4-one] | 2.5 |
| COc1nc(-c2cc(F)cc(-c3cccc(-c4ccn5c(=O)c(CNC[C@@H]6CCC(=O)N6)cnc5c4)c3Cl)c2Cl)ccc1CNC[C@@H]1CCC(=O)N1 [Example 86, 8-(2,2′-Dichloro-5′-fluoro-3′-(6-methoxy-5-(((((S)-5-oxopyrrolidin-2-yl)methyl)amino)methyl)pyridin-2-yl)-[1,1′-biphenyl]-3-yl)-3-(((((S)-5-oxopyrrolidin-2-yl)methyl)amino)methyl)-4H-pyrido[1,2-a]pyrimidin-4-one] | 4.1 |
| O=C1CC[C@@H](CNCc2ccc(-c3cccc(-c4cccc(-c5ccn6c(=O)c(CNC[C@@H]7CCC(=O)N7)cnc6c5)c4Cl)c3Cl)cc2OC(F)(F)F)N1 [Example 87, 8-(2,2′-dichloro-4″-(((((S)-5-oxopyrrolidin-2-yl)methyl)amino)methyl)-3″-(trifluoromethoxy)-[1,1′:3′,1″-terphenyl]-3-yl)-3-(((((S)-5-oxopyrrolidin-2-yl)methyl)amino)methyl)-4H-pyrido[1,2-a]pyrimidin-4-one] | 2.6 |
| Cc1c(-c2ccn3c(=O)c(CNC[C@@H]4CCC(=O)N4)cnc3c2)cccc1-c1cccc(-c2ccc(CNC[C@@H]3CCC(=O)N3)c(OC(F)(F)F)c2)c1Cl [Example 88, 8-(2′-Chloro-2-methyl-4″-(((((S)-5-oxopyrrolidin-2-yl)methyl)amino)methyl)-3″-(trifluoromethoxy)-[1,1′:3′,1″-terphenyl]-3-yl)-3-(((((S)-5-oxopyrrolidin-2-yl)methyl)amino)methyl)-4H-pyrido[1,2-a]pyrimidin-4-one] | 11 |
| CNc1nc(-c2cccc(-c3cccc(-c4ccn5c(=O)c(CNC[C@@H]6CCC(=O)N6)cnc5c4)c3Cl)c2Cl)ccc1CNC[C@@H]1CCC(=O)N1 [Example 89, 8-(2,2′-Dichloro-3′-(6-(methylamino)-5-(((((S)-5-oxopyrrolidin-2-yl)methyl)amino)methyl)pyridin-2-yl)-[1,1′-biphenyl]-3-yl)-3-(((((S)-5-oxopyrrolidin-2-yl)methyl)amino)methyl)-4H-pyrido[1,2-a]pyrimidin-4-one] | 3.5 |
| COc1cc(-c2cccc(-c3cccc(-c4ccn5c(=O)c(CNC[C@@H]6CCC(=O)N6)cnc5c4)c3Cl)c2Cl)ccc1CNC[C@@H]1CCC(=O)N1 [Example 90, 8-(2,2′-Dichloro-3″-methoxy-4″-(((((S)-5-oxopyrrolidin-2-yl)methyl)amino)methyl)-[1,1′:3′,1″-terphenyl]-3-yl)-3-(((((S)-5-oxopyrrolidin-2-yl)methyl)amino)methyl)-4H-pyrido[1,2-a]pyrimidin-4-one] | 1.5 |
| COc1nc(-c2cccc(-c3cccc(-c4ccn5c(=O)c(CN6CC[C@H](C(=O)O)C6)cnc5c4)c3Cl)c2Cl)cnc1CN1CC(CO)C1 [Example 92, (S)-1-((8-(2,2′-Dichloro-3′-(5-((3-(hydroxymethyl)azetidin-1-yl)methyl)-6-methoxypyrazin-2-yl)-[1,1′-biphenyl]-3-yl)-4-oxo-4H-pyrido[1,2-a]pyrimidin-3-yl)methyl)pyrrolidine-3-carboxylic acid] | 0.3 |
| COc1nc(-c2cccc(-c3cccc(-c4ccn5c(=O)c(CN6CC(C(=O)O)C6)cnc5c4)c3Cl)c2Cl)cnc1CN1CC(CO)C1 [Example 93, 1-((8-(2,2′-Dichloro-3′-(5-((3-(hydroxymethyl)azetidin-1-yl)methyl)-6-methoxypyrazin-2-yl)-[1,1′-biphenyl]-3-yl)-4-oxo-4H-pyrido[1,2-a]pyrimidin-3-yl)methyl)azetidine-3-carboxylic acid] | 0.3 |
